Laboratory results reported in publication PMC4305006 (Chemistry & biology, 2014).
In brackets after ≈: the same amount, converted by molar mass.

System: Mtb BioA over-expression strain (BioA-OE)
Assay type: cell-based, Mycobacterium tuberculosis

C=C(CCC(=O)O)c1nc2ccccc2s1 [Compound 13, 4-(benzothiazol-2-yl)pentenoic acid]
MIC90 BioA-OE: 4.7 µM (≈ 1.1 µg/mL)
